Data reported in patent US20080305186A1, “Method and Composition for the Treatment of Cardiac Hypertrophy” (BOARD OF REGENTS, THE UNIVERSITY OF TEXAS SYSTEM, priority 2007, published 2008).

Test system: cardiac gene expression
Experiment: Microarray analysis of cardiac gene expression (GeneChip Mouse Genome 430 2.0)
Format: in vivo, mice
Conditions: mouse heart, vs isoproterenol only (CH)
Experimental: Microarray Sample Preparation and Analysis. Animal hearts were rapidly removed, and the atria and right ventricles were cut and immediately plunged into TRIzol Reagent (Life Technologies). Total RNA was isolated following the manufacturer's instructions, purified by phenol-chloroform extraction and then ethanol precipitation, and 20 μg further processed for microarray analysis. Briefly, cDNA synthesis, in vitro transcription, and labeling and fragmentation to produce the oligonucleotide probes were performed as instructed by the GeneChip manufacturer (Affymetrix). The probes were first hybridized to a test array (Affymetrix) and then to the GeneChip Mouse Genome 430 2.0 Array, using the GeneChip Hybridization Oven 640. The chips were washed in a GeneChip Fluidics Station 450 (Affymetrix), and the results were visualized with a GeneChip G7 scanner (Affymetrix). RMA normalization, pairwise comparisons, Student's t test and Benjamini and Hochberg correction were subsequently performed using GeneSifter (VizX Labs, Seattle, Wash.) and Spotfire DecisionSite 8.3 (Spotfire, Inc., Somerville, Mass.).
Effects on Gene Expression Profile. […] One mouse heart was used for each array, and was performed in triplicate, generating a total of 12 arrays. GeneSifter was used to perform RMA normalization, pairwise comparisons of averaged signal intensity values, and Student's t-test with Benjamini and Hochberg correction, and Spotfire was used to perform pairwise comparisons. […] Additionally, genes that were altered between any two N or cardiac hypertrophy samples were removed, as these alterations most likely represented normal variations between mice.

SMILES: C[C@H]1c2cccc(O)c2C(=O)C2=C(O)[C@]3(O)C(=O)C(C(N)=O)=C(O)[C@@H](N(C)C)[C@@H]3[C@@H](O)[C@@H]21 [doxycycline]
- FC cDNA, BG075321 (CH vs normal 2.2): −2.5 fold
- FC cDNA, BG919470 (CH vs normal 2.2): −2.0 fold
- FC A disintegrin-like and metallopeptidase (reprolysin type) with thrombospondin (ADAMTS)-like 2 (Adamtsl2), AK020831 (CH vs normal 2.3): −1.8 fold
- FC CCAATenhaer binding protein (CEBP), beta (Cebpb), NM_009883 (CH vs normal 2.3): −1.9 fold
- FC cDNA, BB248249 (CH vs normal 2.3): −2.1 fold
- FC cDNA, BB258019 (CH vs normal 2.3): −2.3 fold
- FC cDNA, BB272245 (CH vs normal 2.3): −1.6 fold
- FC cDNA, BC003209 (CH vs normal 2.3): −2.1 fold
- FC cDNA, BF466929 (CH vs normal 2.3): −2.8 fold
- FC Apical protein, Xenopus laevis-like (Apx1), BQ176992 (CH vs normal 2.4): −1.7 fold
- FC Purine-nucleoside phosphorylase (Pnp), BC003788 (CH vs normal 2.4): −2.0 fold
- FC cDNA, BB398891 (CH vs normal 2.4): −2.2 fold
- FC cDNA, BC027342 (CH vs normal 2.4): −2.8 fold
- FC ATP-binding cassette, sub-family G (WHITE), member 2 (Abcg2), NM_011920 (CH vs normal 2.5): −1.7 fold
- FC Angiogenin, ribonuclease A family, member 1 (Ang1), NM_007447 (CH vs normal 2.5): −2.1 fold
- FC ESTs, AI447357 (CH vs normal 2.5): −2.5 fold
- FC cDNA, BB787946 (CH vs normal 2.5): −2.3 fold
- FC cDNA, BE956940 (CH vs normal 2.5): −2.2 fold
- FC cDNA, BG065702 (CH vs normal 2.5): −2.5 fold
- FC Casitas B-lineage lymphoma b (Cblb), BB205662 (CH vs normal 2.6): −2.1 fold
- FC Cysteine proteinase cathepsin L (Ctsl), J02583 (CH vs normal 2.6): −2.1 fold
- FC Dipeptidase 1 (Dpep1), NM_007876 (CH vs normal 2.6): −2.3 fold
- FC Fc fragment of IgG, low affinity IIIa, receptor (Fcrl3), BC027310 (CH vs normal 2.6): −2.7 fold
- FC cDNA, AV234245 (CH vs normal 2.6): −1.8 fold
- FC cDNA, AW552579 (CH vs normal 2.6): −2.4 fold
- FC Bcl2-like (Bcl211), BM228788 (CH vs normal 2.7): −1.9 fold
- FC Ceruloplasmin (Cp), NM_007752 (CH vs normal 2.7): −1.7 fold
- FC G7e protein, NM_033075 (CH vs normal 2.7): −2.2 fold
- FC Mitogen activated protein kinase kinase kinase 8 (Map3k8), NM_007746 (CH vs normal 2.7): −3.0 fold
- FC cDNA, BB200607 (CH vs normal 2.7): −2.7 fold
- FC cDNA, BC019553 (CH vs normal 2.7): 1.7 fold
- FC cDNA, BG071024 (CH vs normal 2.7): −2.8 fold
- FC cDNA, BQ174442 (CH vs normal 2.7): −2.2 fold
- FC cDNA, AV365503 (CH vs normal 2.8, first AV365503 line): −3.0 fold
- FC Carbonic anhydrase 4 (Car4), NM_007607 (CH vs normal 2.8, second NM_007607 line): −4.3 fold
- FC ChaC, cation transport regulator-like 1 (Chac1), BC025169 (CH vs normal 2.9): −2.6 fold
- FC Decorin (Dcn), AV321547 (CH vs normal 2.9): −2.0 fold
- FC Glycoprotein (transmembrane) nmb (Gpnmb), NM_053110 (CH vs normal 2.9): −2.0 fold
- FC cDNA, BC004065 (CH vs normal 2.9): −3.1 fold
- FC cDNA, BC020080 (CH vs normal 2.9): −3.4 fold
- FC Amyotrophic lateral sclerosis 2 (juvenile) chromosome region, candidate 13 (Als2cr13), AV326938 (CH vs normal 3.0): −1.6 fold
- FC Chromodomain protein, Y chromosome-like (Cdyl), NM_009881 (CH vs normal 3.0): −2.0 fold
- FC C-type lectin domain family 1, member a (Clec1a), BB035924 (CH vs normal 3.1): −2.2 fold
- FC Casitas B-lineage lymphoma b (Cblb), AW545867 (CH vs normal 3.1): −2.1 fold
- FC Prostaglandin D synthetase (Ptdgs), AB006361 (CH vs normal 3.1): −2.3 fold
- FC cDNA, AA939619 (CH vs normal 3.1): −3.1 fold
- FC cDNA, AI790538 (CH vs normal 3.1): −2.0 fold
- FC Carbonic anhydrase 4 (Car4), NM_007607 (CH vs normal 3.1, first NM_007607 line): −5.2 fold
- FC cDNA, AV365503 (CH vs normal 3.1, second AV365503 line): −2.8 fold
- FC CUB and zona pellucida-like domains 1 (Cuzd1), NM_008411 (CH vs normal 3.2): −1.7 fold
- FC Chemokine (C—C motif) ligand 6 (Cc16) (MRP-1), BC002073 (CH vs normal 3.2): −1.9 fold
- FC G7e protein, BC027314 (CH vs normal 3.2): −3.1 fold
- FC Serine (or cysteine) peptidase inhibitor, clade A, member 3G (Serpina3g), BC002065 (CH vs normal 3.2): −3.6 fold
- FC cDNA, AV084904 (CH vs normal 3.2): −1.7 fold
- FC cDNA, AV369812 (CH vs normal 3.2): −2.5 fold
- FC cDNA, BB829165 (CH vs normal 3.2): −3.1 fold
- FC cDNA, BG297038 (CH vs normal 3.2): −3.3 fold
- FC cDNA, NM_133898 (CH vs normal 3.2): −3.3 fold
- FC Angiogenin, ribonuclease A family, member 1 (Ang1), AI385586 (CH vs normal 3.2, first AI385586 line): −2.1 fold
- FC Pyruvate dehydrogenase kinase 4 (Pdk4), NM_013743 (CH vs normal 3.3): −3.1 fold
